Measured values as given in ChEMBL document CHEMBL5036327, “Systematic Optimization of Potent and Orally Bioavailable Purine Scaffold as a Dual Inhibitor of Toll-Like Receptors 7 and 9” (J Med Chem, 2021).
In brackets after ≈: the same amount, converted by molar mass.

Tests used:
[1] = Metabolic stability in human liver microsomes assessed as intrinsic clearance incubated for 60 mins by LC-MS/MS analysis
[2] = Metabolic stability in human liver microsomes assessed as half life incubated for 60 mins by LC-MS/MS analysis
[3] = Metabolic stability in mouse liver microsomes assessed as intrinsic clearance incubated for 60 mins by LC-MS/MS analysis
[4] = Metabolic stability in mouse liver microsomes assessed as hepatic extraction ratio incubated for 60 mins by LC-MS/MS analysis
[5] = metabolic stability in human liver microsomes assessed as hepatic extraction ratio incubated for 60 mins by LC-MS/MS analysis
Toll-like receptor 8 = molecular target: T1, Toll-like receptor 8 (Homo sapiens, UniProt Q9NR97); test: Antagonist activity at human TLR8 expressed in […] cells assessed as inhibition of CL075-induced NFkappaB activation measured after overnight incubation by SEAP-based spectrophotometry assay; format: cell-based, HEK293
T1 sequence (Q9NR97 whole entry): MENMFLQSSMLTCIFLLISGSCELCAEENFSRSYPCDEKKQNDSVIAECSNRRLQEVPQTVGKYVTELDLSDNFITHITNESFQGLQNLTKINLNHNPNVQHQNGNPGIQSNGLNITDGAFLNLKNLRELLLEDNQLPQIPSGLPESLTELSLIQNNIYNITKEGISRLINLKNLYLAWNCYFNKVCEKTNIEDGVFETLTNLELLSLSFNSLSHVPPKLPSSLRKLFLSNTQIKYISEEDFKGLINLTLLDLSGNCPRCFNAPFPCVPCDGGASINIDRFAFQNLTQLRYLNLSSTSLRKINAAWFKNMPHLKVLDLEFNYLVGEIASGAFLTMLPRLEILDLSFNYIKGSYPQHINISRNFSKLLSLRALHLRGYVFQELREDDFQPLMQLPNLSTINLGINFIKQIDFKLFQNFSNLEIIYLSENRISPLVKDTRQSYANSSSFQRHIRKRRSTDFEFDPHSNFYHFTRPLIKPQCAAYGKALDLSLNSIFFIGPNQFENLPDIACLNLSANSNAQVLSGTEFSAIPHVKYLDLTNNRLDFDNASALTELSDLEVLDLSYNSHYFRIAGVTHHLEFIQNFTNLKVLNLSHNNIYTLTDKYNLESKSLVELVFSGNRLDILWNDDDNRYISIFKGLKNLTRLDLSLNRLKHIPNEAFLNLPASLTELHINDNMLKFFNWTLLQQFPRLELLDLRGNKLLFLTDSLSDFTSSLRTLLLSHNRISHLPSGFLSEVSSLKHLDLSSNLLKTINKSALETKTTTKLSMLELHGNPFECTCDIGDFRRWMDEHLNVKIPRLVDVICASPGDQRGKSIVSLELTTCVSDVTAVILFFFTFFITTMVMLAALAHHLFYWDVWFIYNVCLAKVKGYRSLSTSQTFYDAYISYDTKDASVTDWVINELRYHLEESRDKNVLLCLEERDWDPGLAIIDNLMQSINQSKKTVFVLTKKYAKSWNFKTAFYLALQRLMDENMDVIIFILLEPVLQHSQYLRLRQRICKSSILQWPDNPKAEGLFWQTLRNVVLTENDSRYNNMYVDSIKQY

[6] = Efflux ratio of apparent permeability across apical to basolateral over basolateral to apical side in human Caco2 cells measured after 10 mins by LC-MS/MS analysis; settings: Caco-2
[7] = Metabolic stability in human liver microsomes assessed as compound remaining incubated for 60 mins by LC-MS/MS analysis
physchem = settings: buffer, pH 7.4
Description: Aqueous solubility of compound at pH 7.4 measured after 18 hrs by UV-spectrometry

Toll-like receptor 7 = molecular target: T2, Toll-like receptor 7 (Homo sapiens, UniProt Q9NYK1); test: Antagonist activity at human TLR7 expressed in HEK-blue-HTLR7 cells assessed as inhibition of CL264-induced NFkappaB activation measured after overnight incubation by SEAP-based spectrophotometry assay
T2 sequence (Q9NYK1 whole entry): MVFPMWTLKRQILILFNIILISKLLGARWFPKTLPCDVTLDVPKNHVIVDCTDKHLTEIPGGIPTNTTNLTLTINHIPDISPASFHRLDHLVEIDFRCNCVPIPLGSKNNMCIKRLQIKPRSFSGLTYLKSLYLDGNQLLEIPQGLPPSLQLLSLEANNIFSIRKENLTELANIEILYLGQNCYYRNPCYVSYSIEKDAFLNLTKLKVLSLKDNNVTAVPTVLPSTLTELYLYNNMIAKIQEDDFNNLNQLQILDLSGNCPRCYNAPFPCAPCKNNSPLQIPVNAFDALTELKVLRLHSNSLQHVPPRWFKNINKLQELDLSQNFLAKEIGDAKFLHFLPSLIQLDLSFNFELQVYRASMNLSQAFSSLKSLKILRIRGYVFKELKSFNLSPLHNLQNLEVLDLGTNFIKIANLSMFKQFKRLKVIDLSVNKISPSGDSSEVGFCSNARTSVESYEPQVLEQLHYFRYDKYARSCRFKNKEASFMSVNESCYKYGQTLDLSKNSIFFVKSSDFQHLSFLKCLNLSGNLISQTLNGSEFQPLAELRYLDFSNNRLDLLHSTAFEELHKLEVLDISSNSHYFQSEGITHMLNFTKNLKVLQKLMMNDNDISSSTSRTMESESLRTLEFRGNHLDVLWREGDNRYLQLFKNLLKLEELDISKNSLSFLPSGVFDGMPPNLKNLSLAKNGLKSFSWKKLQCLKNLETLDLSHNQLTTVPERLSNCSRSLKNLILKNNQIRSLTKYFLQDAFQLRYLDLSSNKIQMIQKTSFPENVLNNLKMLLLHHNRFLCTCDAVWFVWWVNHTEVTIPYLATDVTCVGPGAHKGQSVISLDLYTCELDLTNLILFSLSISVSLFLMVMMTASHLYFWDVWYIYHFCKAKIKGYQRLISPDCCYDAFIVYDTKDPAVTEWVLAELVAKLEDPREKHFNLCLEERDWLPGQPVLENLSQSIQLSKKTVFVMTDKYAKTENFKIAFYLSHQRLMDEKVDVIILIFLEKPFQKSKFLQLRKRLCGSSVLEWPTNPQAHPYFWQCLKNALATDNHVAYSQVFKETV

[8] = Stability in human plasma measured after 2 hrs by LC-MS/MS analysis
[9] = Apparent permeability across basolateral to apical side in human Caco2 cells at 10 uM measured after 10 mins by LC-MS/MS analysis; settings: Caco-2
[10] = Apparent permeability across apical to basolateral side in human Caco2 cells at 10 uM measured after 10 mins by LC-MS/MS analysis; settings: Caco-2
[11] = Stability in mouse plasma measured after 2 hrs by LC-MS/MS analysis

microsomal CLint at 1 h [1]: 38.8 µL/min/mg
half-life at 1 h [2]: 17.9 min
microsomal CLint at 1 h [3]: 23.1 µL/min/mg
hepatic extraction ratio at 1 h [4]: 0.385
hepatic extraction ratio at 1 h [5]: 0.642
IC50 (Toll-like receptor 8): > 30 µM
efflux ratio at 10 min [6]: 1.9
remaining at 1 h [7]: 2.9%
solubility at 18 h (physchem): 28 µg/mL (≈ 55.3 µM)
IC50 (Toll-like receptor 7): 13.6 µM
remaining at 2 h [8]: 75%
Papp B→A at 10 min, 10 µM [9]: 62 ×10⁻⁶ cm/s
Papp A→B at 10 min, 10 µM [10]: 32.7 ×10⁻⁶ cm/s
remaining at 2 h [11]: 20%
Structure (SMILES): Fc1ccc(CNc2nc(N3CCN(C4CCCC4)CC3)c3ncn(CCCN4CCCC4)c3n2)cc1
